Test results as given in patent US5173510A, “Simplified thioester and isostere analogs of oleoyl coenzyme A as hypocholesterolemic agents” (American Cyanamid Company, priority 1991, dated 1992).

Molecular target: T1, acyl coenzyme A: cholesterol O-acyltransferase (ACAT) (Oryctolagus cuniculus, UniProt G1SFD9)
T1 construct: The microsomal fraction was isolated by centrifugation and stored frozen; from tissue; host or cells: jejunal mucosa microsomes of New Zealand white rabbits
T1 sequence (G1SFD9 1-524): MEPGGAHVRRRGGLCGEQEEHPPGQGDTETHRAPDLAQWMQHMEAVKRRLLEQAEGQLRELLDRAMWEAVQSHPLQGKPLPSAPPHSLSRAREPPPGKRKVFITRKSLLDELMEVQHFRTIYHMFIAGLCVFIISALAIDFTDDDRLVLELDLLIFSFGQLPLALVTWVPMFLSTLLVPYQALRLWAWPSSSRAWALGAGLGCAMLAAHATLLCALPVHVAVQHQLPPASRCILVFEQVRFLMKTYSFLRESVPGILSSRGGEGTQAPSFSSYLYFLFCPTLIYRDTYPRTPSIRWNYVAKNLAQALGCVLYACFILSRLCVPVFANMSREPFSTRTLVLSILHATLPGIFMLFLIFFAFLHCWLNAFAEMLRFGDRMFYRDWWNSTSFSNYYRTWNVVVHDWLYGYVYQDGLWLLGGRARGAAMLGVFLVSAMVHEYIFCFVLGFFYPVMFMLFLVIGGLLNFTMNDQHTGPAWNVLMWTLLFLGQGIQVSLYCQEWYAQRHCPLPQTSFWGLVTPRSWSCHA
Experiment: Inhibition of ACAT catalyzed formation of cholesterol oleate from endogenous cholesterol and exogenous 14C oleate
Format: biochemical, New Zealand white rabbits
Conditions: concentration at which 50% of the cholesterol esterification reaction is inhibited; rabbit jejunum mucosa microsomal fraction
Protocol: The compounds of this invention were tested for their ability to inhibit the acyl coenzyme A: cholesterol O-acyltransferase (ACAT) catalyzed formation of cholesterol oleate from endogenous cholesterol and exogenous ^14 C oleate.
The mucosa from the Jejunum of New Zealand white rabbits was removed by scraping with a spatula and homogenized in a solution containing 0.25M sucrose, 1 mM EDTA, 1 mM dithiothreitol and 5 mM of potassium phosphate (pH 7.4). The microsomal fraction was isolated by centrifugation and stored frozen at -70° C. in sucrose buffer (3 mg protein/ml) until use. The ACAT reaction was assayed using the method of S. Hashimoto, et al., Life Science 12, 1 (1973). The test compounds were dissolved in methanol at concentrations such that the addition of 0.003 ml in a reaction volume of 0.5 ml gave the final desired concentration.
Referring to the table, IC50 indicates the concentration of the compound at which 50% of the cholesterol esterfication reaction is inhibited. […] As can be observed from the table, the compounds of the present invention are very potent inhibitors of the ACAT enzyme catalyzed reaction. […] In view of the results presented in the table, these compounds are useful for controlling and reducing the cholesteryl ester content of mammalian arterial walls and decreasing the accumulation and storage of cholesterol in the arterial walls of mammals. Further, the compounds of this invention may inhibit the formation or development of atherosclerotic lesions in mammals.

`CCCCCCCC/C=C\CCCCCCCC(=O)SCCNC(C)=O` [Example 3, S-[2-(Acetylamino)ethyl]-9(Z)-octadecenethioic acid] and `CCCCCCCC/C=C\CCCCCCCC(=O)SCCNC(=O)CCNC(C)=O` [Example 6, S-[2-[[3-(Acetylamino)-1-oxopropyl]amino]ethyl]-9(Z)-octadecenethioate] cannot be ordered by IC50: > 100 µM for the first, > 100 µM for the second.

`CCCCCCCC/C=C\CCCCCCCC(=O)SCCNC(=O)CCNC(=O)[C@H](O)C(C)(C)CO` [Example 10, S-[2-[[3-[(2,4-Dihydroxy-3,3-dimethyl-1-oxobutyl)amino]-1-oxopropyl]amino]ethyl]-9(Z)octadecenethioic acid] and `CCCCCCCC/C=C\CCCCCCCC(=O)OCCNC(=O)CCNC(=O)C(O)C(C)(C)CO` (stereo not drawn) [Example 17, 2-[[3-[(2,4-Dihydroxy-3,3-dimethyl-1-oxo-butyl)amino]-1-oxopropyl]amino]ethyl-9(Z)-octadecenoate] are within 1.5-fold of each other in IC50: 103 µM for the first, 77 µM for the second.

`CCCCCCCC/C=C\CCCCCCCC(=O)OCCNC(C)=O` [Example 11] and `CCCCCCCC/C=C\CCCCCCCC(=O)OCCNC(=O)CCNC(C)=O` [Example 13, 2-[[3-(Acetylamino)-1-oxopropyl]amino]ethyl-9(Z)-octadecenoate] cannot be ordered by IC50: > 100 µM for the first, > 150 µM for the second.

Going from `CCCCCCCC/C=C\CCCCCCCC(=O)NCCNC(C)=O` [Example 18, N-[2-(Acetylamino)ethyl]-9(Z)-octadecenamide] to `CCCCCCCC/C=C\CCCCCCCC(=O)NCCNC(=O)CCNC(C)=O` [Example 22, N-[2-[[3-(Acetylamino)-1-oxopropyl]amino]ethyl]-9(Z)-octadecenamide], the IC50 rises from 39 µM to > 100 µM. The first is the more potent here.

First: CCCCCCCC/C=C\CCCCCCCC(=O)NCCNC(=O)CCNC(=O)C1OC(C)(C)OCC1(C)C (stereo not drawn) [Example 25, 2,2,5,5-Tetramethyl-N-[3-oxo-3-[[2-[(1-oxo-9(Z)-octadecenyl)amino]ethyl]amino]propyl]-1,3-dioxane-4-carboxamide]
Second: CCCCCCCC/C=C\CCCCCCCC(=O)NCCNC(=O)CCNC(=O)C(O)C(C)(C)CO (stereo not drawn) [Example 26, N-[2-[[3-[(2,4-Dihydroxy-3,3-dimethyl-1-oxo-butyl)amino]-1-oxopropyl]amino]ethyl]-9(Z)-octadecenamide]
The IC50 of the first is 2.8-fold lower: 1.2 µM for the first, 3.3 µM for the second.

Going from `CCCCCCCC/C=C\CCCCCCCC(O)CCCNC(C)=O` (stereo not drawn) [Example 31] to `CCCCCCCC/C=C\CCCCCCCC(O)CCCNC(=O)CCNC(C)=O` (stereo not drawn) [Example 33, 3-(Acetylamino)-N-(4-hydroxy-12(Z)-heneicosenyl)propanamide], the IC50 rises from 47 µM to 108 µM (2.3-fold). The first is the more potent here.

First: CCCCCCCC/C=C\CCCCCCCC(=O)CCCNC(C)=O [Example 32]
Second: CCCCCCCC/C=C\CCCCCCCC(=O)CCCNC(=O)CCNC(C)=O [Example 34, 3-(Acetylamino)-N-(4-oxo-12(Z)-heneicosenyl)propanamide]
The IC50 of the first is 1.7-fold lower: 66 µM for the first, 113 µM for the second. The first is the more potent here.

First: CCCCCCCC/C=C\CCCCCCCC(=O)CCCNC(=O)CCNC(=O)C(O)C(C)(C)CO (stereo not drawn) [Example 37, 2,4-Dihydroxy-2,2-dimethyl-N-[3-oxo-3-[(4-oxo-12(Z)-heneicosenyl)amino]propyl]butanamide]
Second: CCCCCCCC/C=C\CCCCCCCC(O)CCCNC(=O)CCNC(=O)C(O)C(C)(C)CO (stereo not drawn) [Example 38, 2,4-Dihydroxy-N-[3-[(4-hydroxy-12(Z)-heneicosyl)amino]-3-oxopropyl]-3,3-dimethylbutanamide]
The IC50 of the first is 1.7-fold higher: 99 µM for the first, 57 µM for the second. The second is the more potent here.

Same assay, conditions: summary statement on Table I

In the case of `CCCCCCCC/C=C\CCCCCCCC(=O)NCCNC(=O)CCNC(=O)C1OC(C)(C)OCC1(C)C` (stereo not drawn) [Example 25, 2,2,5,5-Tetramethyl-N-[3-oxo-3-[[2-[(1-oxo-9(Z)-octadecenyl)amino]ethyl]amino]propyl]-1,3-dioxane-4-carboxamide], the “potency as inhibitors of the ACAT enzyme catalyzed reaction (in words)” value is reported as “most potent”.
For `CCCCCCCC/C=C\CCCCCCCC(=O)NCCNC(=O)CCNC(=O)C(O)C(C)(C)CO` (stereo not drawn) [Example 26, N-[2-[[3-[(2,4-Dihydroxy-3,3-dimethyl-1-oxo-butyl)amino]-1-oxopropyl]amino]ethyl]-9(Z)-octadecenamide], the “potency as inhibitors of the ACAT enzyme catalyzed reaction (in words)” value was “most potent”.
